Tests used:
KRAS G13D = KRAS G13D (Homo sapiens, UniProt P01116, G13D); test: SOS-catalyzed nucleotide exchange assay, KRAS G13D (Procedure A); type: biochemical; conditions: GNE
Description: (§1) Procedure for SOS-Catalyzed Nucleotide Exchange Assay for KRAS-WT, G12C/D/V, G13D, HRAS, and NRAS (Procedure A)
(§2) Recombinant KRAS-G12C protein used in this assay has an additional triple mutation (C51S/C80L/C118S). Whereas KRAS-WT, G12D/V, G13D, HRAS and NRAS are in context of their WT protein sequence background. Specifically, the SOS-catalyzed nucleotide exchange assay utilizes a preformed TR-FRET complex containing a specific biotinylated RAS protein (KRAS-WT, G12C/V/D, G13D, HRAS, NRAS; described above) with Bodipy-GDP, and Terbium-streptavidin. Compounds are preincubated with this complex for 60 minutes. Subsequently, recombinant human SOS protein and unlabeled GTP are added to initiate the exchange reaction. Small molecule inhibitors stabilize the Bodipy-GDP complex whereas the untreated protein rapidly exchanges Bodipy-GDP for unlabeled GTP resulting in reduced TR-FRET signal.
(§3) To assemble the preformed TR-FRET complexes, each biotinylated RAS protein is diluted to 2 μM in an EDTA Buffer (20 mM HEPES pH 7.5, 50 mM sodium chloride, 10 mM EDTA, and 0.01% Tween) and incubated at room temperature for one hour. This mixture is then further diluted to 90 nM in an Assay Buffer (20 mM HEPES pH 7.5, 150 mM sodium chloride, 10 mM magnesium chloride, and 0.005% Tween) containing 15 nM of Terbium-Streptavidin (Invitrogen, catalog #PV3577) and 900 nM of Bodipy-GDP (Invitrogen, catalog #G22360) and incubated at room temperature for six hours. It should be noted that this preformed TR-FRET complex for each of the RAS protein were made ahead of time, aliquoted and stored at −80° C. until the day of the experiment.
(§4) Each test compound (10 mM stock in DMSO) is diluted in DMSO to make a final-10-point, 3-fold dilution and is acoustically dispensed into a 384-well assay plate (Corning, catalog #3820) using an Echo 550 (Labcyte). Each well of the assay plate receives 3 μL of a specific 3×RAS preformed TR-FRET complex and 3 μL of Assay Buffer and is incubated at room temperature for 60 minutes (preincubation time). Each well then receives 3 μL of 3× recombinant human SOS protein and GTP (Sigma, G8877) in Assay Buffer and is incubated at room temperature for 30 minutes (G13D), 60 minutes (KRAS WT/G12C/D, H/NRAS) or 90 minutes for G12V. The final reaction in each well of 9 μL consists of 3 mM GTP, specific Ras and SOS proteins in the following concentrations: KRAS-G12C/SOS=3 nM/40 nM, KRAS-WT and G12D/SOS=1 nM/40 nM, KRAS-G12V/SOS=1.25 nM/160 nM, KRAS-G13D/SOS=1.25 nM/0 nM, HRAS and NRAS=1.25 nM/40 nM.
(§5) The time-resolved fluorescence resonance energy transfer (TR-FRET) signal is measured on an Envision (PerkinElmer) plate reader: Excitation filter=340 nm; emission1=495 nm; emission2=520 nm; dichroic mirror=D400/D505; delay time=[…]. The signal of each well is determined as the ratio of the emission at 520 nm to that at 495 nm. Percent effect of each well is determined after normalization to control wells containing DMSO (no effect) or a saturating concentration of inhibitor (max effect). The apparent effect as a function of compound concentration is fit to a four-parameter logistic equation.
(§6) For Example No. 14, nucleotide exchange assays for KRAS G12D, WT, G12C, and G12V were performed according to Procedure B. All the other compounds were tested according to Procedure A.

KRAS G12C = KRAS G12C (Homo sapiens, UniProt P01116, C118S/C51S/C80L/G12C); test: SOS-catalyzed nucleotide exchange assay, KRAS G12C (Procedure A); type: biochemical; conditions: GNE
Description: as §1, §2, §3, §4, §5, §6

HRAS = HRAS (Homo sapiens, UniProt P01112); test: SOS-catalyzed nucleotide exchange assay, HRAS (Procedure A); type: biochemical; conditions: GNE
Description: as §1, §2, §3, §4, §5, §6

KRAS G12D = KRAS G12D (Homo sapiens, UniProt P01116, G12D); test: SOS-catalyzed nucleotide exchange assay, KRAS G12D (Procedure A); type: biochemical; conditions: guanine nucleotide exchange (GNE)
Method in brief: (§7)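 Preformed TR-FRET complex of biotinylated KRAS (G12C carries C51S/C80L/C118S; others native sequence), Bodipy-GDP and Tb-streptavidin preincubated with compound 60 min at room temperature. Exchange started with human SOS plus 3 mM GTP for 60 min (G13D 30 min). Final RAS/SOS: G12C 3/40 nM; WT, G12D 1/40 nM; G13D 1.25/0 nM. 520/495 nm ratio normalised, fitted to four-parameter logistic.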

KRAS WT = KRAS WT (Homo sapiens, UniProt P01116); test: SOS-catalyzed nucleotide exchange assay, KRAS WT (Procedure A); type: biochemical; conditions: GNE
Method in brief: as §7

NRAS = NRAS (Homo sapiens, UniProt P01111); test: SOS-catalyzed nucleotide exchange assay, NRAS (Procedure A); type: biochemical; conditions: GNE
Description: as §1, §2, §3, §4, §5, §6

KRAS G12V = KRAS G12V (Homo sapiens, UniProt P01116, G12V); test: SOS-catalyzed nucleotide exchange assay, KRAS G12V (Procedure A); type: biochemical; conditions: GNE
Method in brief: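 Biotinylated KRAS G12V was loaded with Bodipy-GDP alongside Terbium-streptavidin to form a TR-FRET complex, which was preincubated with compounds for 60 minutes in 384-well plates. Human SOS protein and unlabeled GTP were then added for 90 minutes, giving final concentrations of 1.25 nM KRAS-G12V, 160 nM SOS and 3 mM GTP. The 520/495 nm emission ratio was read on an Envision.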

AsPC-1 cells = target: T1, AsPC-1 cells (Homo sapiens, UniProt P01116, G12D); test: Cellular phospho-ERK assay, AsPC-1 cells (KRAS G12D); type: cell-based; conditions: 2 hours, read-out: AsPC1 pERK IC50
T1 construct: p-ERK/total ERK AlphaSureFire read-out
Method in brief: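 PANC08.13 or AsPC-1 cells (homozygous KRAS G12D) were seeded overnight, then treated for 2 h at 37 °C with a 10-point 1:3 titration from 30 μM. Lysates were assayed by AlphaLISA SureFire for p-ERK and total ERK. IC50 came from a 4-parameter fit of the p-ERK/total ERK ratio.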

Sequence of KRAS WT (P01116 with tags, fused parts or gaps isoform P01116-2): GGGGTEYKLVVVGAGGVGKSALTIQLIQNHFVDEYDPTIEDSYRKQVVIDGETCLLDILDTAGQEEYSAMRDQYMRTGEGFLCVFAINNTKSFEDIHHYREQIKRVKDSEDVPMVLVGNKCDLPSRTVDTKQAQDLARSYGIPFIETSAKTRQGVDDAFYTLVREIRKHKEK
T1 sequence (P01116 1-188 isoform P01116-2 G12D): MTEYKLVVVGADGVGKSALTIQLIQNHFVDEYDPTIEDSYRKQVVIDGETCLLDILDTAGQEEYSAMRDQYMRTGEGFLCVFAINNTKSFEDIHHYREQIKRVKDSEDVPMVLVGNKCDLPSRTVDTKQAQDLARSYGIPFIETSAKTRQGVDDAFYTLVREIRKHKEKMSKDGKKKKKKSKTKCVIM
Sequence of KRAS G12C (P01116 with tags, fused parts or gaps isoform P01116-2 G12C/C51S/C80L/C118S): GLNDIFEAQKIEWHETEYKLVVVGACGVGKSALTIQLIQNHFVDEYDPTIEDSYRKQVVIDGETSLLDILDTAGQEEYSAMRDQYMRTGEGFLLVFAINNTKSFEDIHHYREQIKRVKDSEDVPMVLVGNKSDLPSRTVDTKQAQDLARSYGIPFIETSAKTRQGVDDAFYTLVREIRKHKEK
Sequence of KRAS G12D (P01116 with tags, fused parts or gaps isoform P01116-2 G12D): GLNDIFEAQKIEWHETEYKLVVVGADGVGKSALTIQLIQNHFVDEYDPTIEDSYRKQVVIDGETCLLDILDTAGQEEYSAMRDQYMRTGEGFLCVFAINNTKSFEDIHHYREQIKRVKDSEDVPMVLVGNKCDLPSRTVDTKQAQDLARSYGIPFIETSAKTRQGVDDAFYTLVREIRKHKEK
Sequence of KRAS G12V (P01116 with tags, fused parts or gaps isoform P01116-2 G12V): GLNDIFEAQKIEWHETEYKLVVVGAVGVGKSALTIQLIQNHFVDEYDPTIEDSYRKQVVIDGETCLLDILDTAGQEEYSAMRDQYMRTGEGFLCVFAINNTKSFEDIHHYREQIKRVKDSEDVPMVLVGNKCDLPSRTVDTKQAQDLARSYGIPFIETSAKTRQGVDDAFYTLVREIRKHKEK
Sequence of KRAS G13D (P01116 with tags, fused parts or gaps isoform P01116-2 G13D): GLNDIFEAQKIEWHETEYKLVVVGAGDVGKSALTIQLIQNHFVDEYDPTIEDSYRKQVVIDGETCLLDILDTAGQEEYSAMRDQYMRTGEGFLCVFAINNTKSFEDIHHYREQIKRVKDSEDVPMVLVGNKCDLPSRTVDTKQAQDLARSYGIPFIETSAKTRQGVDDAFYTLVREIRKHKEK
Sequence of NRAS (P01111 with tags, fused parts or gaps): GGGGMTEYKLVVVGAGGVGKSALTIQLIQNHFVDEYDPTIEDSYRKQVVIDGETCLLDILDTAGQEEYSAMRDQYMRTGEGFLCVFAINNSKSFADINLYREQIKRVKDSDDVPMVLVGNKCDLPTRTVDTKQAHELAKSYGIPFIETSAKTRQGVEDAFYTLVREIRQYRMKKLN
Sequence of HRAS (P01112 with tags, fused parts or gaps): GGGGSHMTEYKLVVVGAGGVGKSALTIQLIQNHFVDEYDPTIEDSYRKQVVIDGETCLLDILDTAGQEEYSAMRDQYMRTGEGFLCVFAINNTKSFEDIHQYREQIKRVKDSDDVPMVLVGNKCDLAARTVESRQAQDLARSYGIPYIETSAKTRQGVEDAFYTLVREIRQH

Row | SMILES | IC50 (KRAS G13D) [nM] | IC50 (KRAS G12C) [nM] | IC50 (HRAS) [nM] | IC50 (KRAS G12D) [nM] | IC50 (KRAS WT) [nM] | IC50 (NRAS) [nM] | IC50 (KRAS G12V) [nM] | IC50 (AsPC-1 cells) [nM]
1 | Cc1cc2[nH]ncc2c(-c2nccc3c2sc2nc(OC[C@H]4C[C@H](S(C)(=N)=O)C4)nc(N4C[C@H]5CC[C@@H](C4)N5)c23)c1C(F)(F)F (stereo partly drawn) [Ex-35, (1S)-((1R,3S)-3-(((4-((1R,5S)-3,8-diazabicyclo[3.2.1]octan-3-yl)-8-(6-methyl-5-(trifluoromethyl)-1H-indazol-4-yl)pyrido[4′,3′:4,5]thieno[2,3-d]pyrimidin-2-yl)oxy)methyl)cyclobutyl)(imino) (methyl)-λ^6-sulfanone] | > 11100 | > 11100 | > 11100 | 1430 | > 11100 | > 11100 | > 11100 | > 30000
2 | Cc1cc2[nH]ncc2c(-c2nccc3c2sc2nc(OC[C@@]45CCCN4C[C@H](F)C5)nc(N4C[C@H]5CC[C@@](C)(C4)N5)c23)c1C(F)(F)F [Ex-76, 2-(((2R,7aS)-2-fluorotetrahydro-1H-pyrrolizin-7a(5H)-yl)methoxy)-8-(6-methyl-5-(trifluoromethyl)-1H-indazol-4-yl)-4-((1S,5R)-1-methyl-3,8-diazabicyclo[3.2.1]octan-3-yl)pyrido[4′,3′:4,5]thieno[2,3-d]pyrimidine] | 1810 | 1040 | > 11100 | 26.3 | 8270 | > 11100 | 6350 | 397
3 | C#Cc1csc2cc3[nH]ncc3c(-c3nccc4c3sc3nc(OC[C@@]56CCCN5C[C@H](F)C6)nc(N5C[C@H]6CC[C@@H](C5)N6)c34)c12 [Ex-54, 4-((1R,5S)-3,8-diazabicyclo[3.2.1]octan-3-yl)-8-(5-ethynyl-1H-thieno[3,2-f]indazol-4-yl)-2-(((2R,7aS)-2-fluorotetrahydro-1H-pyrrolizin-7a(5H)-yl)methoxy)pyrido[4′,3′:4,5]thieno[2,3-d]pyrimidine] | 14.8 | 22.7 | > 11100 | 1.92 | 80.7 | > 11100 | 62.7 | 31.4
4 | Cc1cc2[nH]ncc2c(-c2nncc3c2sc2nc(OC[C@@]45CCCN4C[C@H](F)C5)nc(N4C[C@H]5CC[C@@H](C4)N5)c23)c1C(F)(F)F [Ex-77, 4-((1R,5S)-3,8-diazabicyclo[3.2.1]octan-3-yl)-2-(((2R,7aS)-2-fluorotetrahydro-1H-pyrrolizin-7a(5H)-yl)methoxy)-8-(6-methyl-5-(trifluoromethyl)-1H-indazol-4-yl)pyrimido[5′,4′:4,5]thieno[2,3-d]pyridazine] | 374 | 334 | > 11100 | 17.1 | 4840 | > 11100 | 2320 | 726
5 | Cc1cc2[nH]ncc2c(-c2nccc3c2sc2nc(OC[C@@]45CCCN4C[C@H](F)C5)nc(N4CC5CC(C4)N5)c23)c1C(F)(F)F [Ex-67, 4-(3,6-diazabicyclo[3.1.1]heptan-3-yl)-2-(((2R,7aS)-2-fluorotetrahydro-1H-pyrrolizin-7a(5H)-yl)methoxy)-8-(6-methyl-5-(trifluoromethyl)-1H-indazol-4-yl)pyrido[4′,3′:4,5]thieno[2,3-d]pyrimidine] | 323 | 265 | > 11100 | 13.1 | 856 | > 11100 | 672 | 699
6 | Cc1cc2[nH]ncc2c(-c2nccc3c2sc2nc(OCC4(C)CNC(=O)C4)nc(N4C[C@H]5CC[C@@H](C4)N5)c23)c1C(F)(F)F (stereo partly drawn) [Ex-37, 4-(((4-((1R,5S)-3,8-diazabicyclo[3.2.1]octan-3-yl)-8-(6-methy1-5-(trifluoromethyl)-1H-indazol-4-yl)pyrido[4′,3′:4,5]thieno[2,3-d]pyrimidin-2-yl)oxy)methyl)-4-methylpyrrolidin-2-one] | > 11100 | > 11100 | > 11100 | 1280 | > 11100 | > 11100 | > 11100 | > 30000
7 | CC12CC(COc3nc(N4C[C@H]5CC[C@@H](C4)N5)c4c(n3)sc3c(-c5c(C6CC6)c(Cl)cc6[nH]ncc56)nccc34)(CO1)C2 [Ex-23, 4-((1R,5S)-3,8-diazabicy-clo[3.2.1]octan-3-yl)-8-(6-chloro-5-cyclopropyl-1H-indazol-4-yl)-2-(((1R,4r)-1-methyl-2-oxabicy-clo[2.1.1]hex-an-4-yl)methoxy)pyri-do[4′,3′:4,5]thi-eno[2,3-d]pyrimi-dine] | > 11100 | > 11100 | > 11100 | 1970 | > 11100 | > 11100 | > 11100 | 8110
8 | Cc1cc2[nH]ncc2c(-c2nccc3c2sc2nc(OC[C@@]45CCCN4C[C@H](F)C5)nc(NCC4(N(C)C)CCC4)c23)c1C(F)(F)F [Ex-74, N-((1-(dimethylamino)cyclobutyl)methyl)-2-(((2R,7aS)-2-fluorotetrahydro-1H-pyrrolizin-7a(5H)-yl)methoxy)-8-(6-methyl-5-(trifluoromethyl)-1H-indazol-4-yl)pyrido[4′,3′:4,5]thieno[2,3-d]pyrimidin-4-amine] | 2880 | > 11100 | > 11100 | 1300 | > 11100 | > 11100 | > 11100 | 12100
9 | Cc1cc2[nH]ncc2c(-c2nccc3c2sc2nc(OC[C@@]45CCCN4C[C@H](F)C5)nc(N4C5CNCC4C5)c23)c1C(F)(F)F [Ex-68, 4-(3,6-diazabicyclo[3.1.1]heptan-6-yl)-2-(((2R,7aS)-2-fluorotetrahydro-1H-pyrrolizin-7a(5H)-yl)methoxy)-8-(6-methyl-5-(trifluoromethyl)-1H-indazol-4-yl)pyrido[4′,3′:4,5]thieno[2,3-d]pyrimidine] | 3050 | 1850 | > 11100 | 267 | 6600 | > 11100 | 1360 | 11100
